Read-outs that look alike come from different tables or passages of the source.
Key:
ddy strain of male mice = test: Acute toxicity (oral, general symptom and death observed for 7 days); format: in vivo; conditions: 7 days
Experimental: (§1) Next, several tests for determining the pharmacological properties, in that acute toxicity, anti-pyretic activity, analgesic activity and anti-inflammatory activity of the present 1,3,5-substituted biuret compounds of the formula (1) were conducted and the test results are shown in Table (2). In the tests, each compounds to be tested was used as a suspension in 0.25% carboxymethylcellulose solution. Methods for testing are explained as follows:
The ddy strain of male mice (body weight, 20-25 g) were used as test animals. The mice were fasted overnight and the compound to be tested was administered orally. […] The lethal dose (mg/kg, body weight) of the test compound was determined in connection with the death number of mice/the number of mice tested. In Table 2, the values indicated with Δ marks are 50% lethal dose, LD50 (mg/kg, body weight).

[1] = tested on: acetic acid-induced stretching symptom of mouse; test: Analgesic activity, acetic acid-induced stretching method; format: in vivo, mice (ddy strain, male); conditions: for inhibition in vivo at 100 mg/kg / inhibition in vivo at 200 mg/kg: read-out: Analgesic activity, acetic acid-induced stretching method, inhibitory ratio
Experimental: as §1
(1) Acetic acid-induced stretching method
According to the method reported by Koster et.al., [Fed. Proc., Vol. 18, pp. 412 (1959)], the ddy strain of male mice (body weight, 20-25 g) were used as test animals. The mice were fasted overnight, 100 mg/kg body weight of the test compound was administered orally, then 1 hour after the administration, 0.2 ml of 0.7% acetic acid solution was injected intraperitoneally. The acetic acid-induced stretching symptom of mouse was observed. Analgesic activity of the test compound was calculated as the inhibitory ratio (%). In Table 2, the values in parentheses show the data obtained from the test by using the dosage other than 100 mg/kg body weight. Further, the values indicated with Δ marks show 50% effective dose, ED50 (mg/kg body weight).

[2] = tested on: pain reaction of the mouse caused by a clamp; test: Analgesic activity, Haffner method; format: in vivo, mice (ddy strain, male); conditions: for Analgesic activity, Haffner method, inhibitory ratio: mice
Experimental: as §1
According to the modified method reported by Fujimura et al., [Bulletin of the Institute for Chemical Research, Kyoto University, No. 25, pp. 36 (1951)], the ddy strain of male mice (body weight, 20-25 g) were used as test animals. The mice were fasted overnight, 100 mg/kg body weight of the test compound was administered orally, then 45 minutes after the administration, the threshhold amount (1.5-2.5 mg/kg body weight) of morphine hydrochloride was injected subcutaneously. Then 1-hour pain reaction of the mouse caused by a clamp was observed. Analgesic activity of the test compound was calculated as the inhibitory ratio (%). In Table 2, the values in parentheses show the data obtained from the test by using the dosage other than 100 mg/kg body weight. Further, the values indicated with Δ marks show 50% effective dose, ED50 (mg/kg body weight).

[3] = tested on: carrageenin-induced inflammation of the hindpaw of the rat; test: Anti-inflammatory activity, acute carrageenin-induced inflammatory test; format: in vivo, rats (Wistar strain, male); conditions: Rattus norvegicus, read-out: Anti-inflammatory activity, inflammation inhibitory ratio
Experimental: as §1
4. Anti-inflammatory Activity
According to the method of acute carrageenin-induced inflammatory test [Folia Pharmacologia Japonica, Vol. 56, pp. 575 (1960)], the Wistar strain of male rats (body weight, 150-180 g) were used as test animals. The rats were fasted overnight, 100 mg/kg body weight of the test compound was administered orally, then 1 hour after the administration, 0.1 ml of 1% carrageenin solution, as the inflammation inducing agent, was injected subcutaneously to the hindpaw of the rat and the volume of the hindpaw was measured at time sequences. Anti-inflammatory activity of the test compound was calculated as inflammation inhibitory ratio (%) at 3 hours after the injection of inflammation inducing agent.

[4] = 100 mg/kg oral, rats, 3 hours after carrageenin
[5] = 200 mg/kg oral, rats, 3 hours after carrageenin

SMILES	Acute toxicity, death number of mice/number of mice tested (ddy strain of male mice; 2000 mg/kg oral)	inhibition in vivo at 100 mg/kg ([1]; po) [%]	Acute toxicity, death number of mice/number of mice tested (ddy strain of male mice; 1000 mg/kg oral)	Analgesic activity, Haffner method, inhibitory ratio ([2]; 100 mg/kg oral) [%]	Analgesic activity, Haffner method, inhibitory ratio ([2]; 200 mg/kg oral) [%]	further results
CN(C(N)=O)C(=O)Nc1ccccc1 [Compound No. 1]	2/4	37.5	–	–	–	–
CNC(=O)NC(=O)Nc1ccccc1 [Compound No. 2]	–	75	4/4	50	–	Acute toxicity, death number of mice/number of mice tested (ddy strain of male mice; 500 mg/kg oral): 0/4; inhibition in vivo at 100 mg/kg ([3]; po, 3 h): 28%
CCN(C(=O)NC)C(=O)Nc1ccccc1 [Compound No. 21, 1-Methyl-3-ethyl-5-phenylbiuret]	3/4	50	1/4	37.5	–	inhibition in vivo at 100 mg/kg [3, 4]: 56%
CNC(=O)N(C(=O)Nc1ccccc1)c1ccccc1 [Compound No. 22, 1-methyl-3,5-diphenylbiuret]	0/4	37.5	–	–	50	inhibition in vivo at 100 mg/kg [3, 4]: 35%
CCNC(=O)NC(=O)Nc1ccccc1 [Compound No. 23, 1-ethyl-5-phenylbiuret]	0/4	62.5	–	–	60	inhibition in vivo at 100 mg/kg [3, 4]: 49%
CN(C(=O)NCC(C)(C)O)C(=O)Nc1ccccc1 [Compound No. 57, 1-(2-Methyl-2-hydroxypropyl)-3-methyl-5-phenylbiuret]	2/4	–	0/4	50	–	inhibition in vivo at 100 mg/kg ([1]; 100 mg/kg oral, mice): 100%
CNC(=O)N(C)C(=O)Nc1ccccc1C(=O)O [compound 10, 1,3-Dimethyl-5-(2-carboxyphenyl)biuret]	4/4	12.5	1/4	–	–	–
CNC(=O)N(C)C(=O)NCc1ccccc1 [compound 12]	–	–	4/4	50	–	Acute toxicity, death number of mice/number of mice tested (ddy strain of male mice; 500 mg/kg oral): 0/4; inhibition in vivo at 100 mg/kg ([3]; po, 3 h): 47%; inhibition in vivo at 100 mg/kg ([1]; 100 mg/kg oral, mice): 100%
CNC(=O)N(C)C(=O)NCc1ccccn1 [compound 13, 1,3-Dimethyl-5-(2-pyridylmethyl)biuret]	2/4	–	0/4	37.5	–	inhibition in vivo at 100 mg/kg ([1]; 100 mg/kg oral, mice): 25%
CCNC(=O)NC(=O)Nc1ccccc1Cl [compound 24, 1-Ethyl-5-(2-chlorophenyl)biuret]	0/4	–	–	–	37.5	inhibition in vivo at 200 mg/kg [3, 5]: 77%; inhibition in vivo at 200 mg/kg ([1]; 200 mg/kg oral, mice): 25%
CCNC(=O)NC(=O)Nc1cccc(Cl)c1 [compound 25, 1-Ethyl-5-(3-chlorophenyl)biuret]	0/4	–	–	–	37.5	inhibition in vivo at 200 mg/kg [3, 5]: 86%; inhibition in vivo at 200 mg/kg ([1]; 200 mg/kg oral, mice): 25%
CCNC(=O)NC(=O)Nc1ccc(Cl)cc1 [compound 26]	0/4	–	–	–	25	inhibition in vivo at 200 mg/kg [3, 5]: 76%; inhibition in vivo at 200 mg/kg ([1]; po): 12.5%
CCNC(=O)NC(=O)Nc1ccc(Cl)c(Cl)c1 [compound 27, 1-Ethyl-5-(3,4-dichlorophenyl)biuret]	1/4	–	0/4	–	12.5	inhibition in vivo at 200 mg/kg ([3]; po, 3 h): 44%; inhibition in vivo at 200 mg/kg ([1]; po): 12.5%
CCNC(=O)NC(=O)NCc1ccccc1 [compound 29, 1-Ethyl-5-benzylbiuret]	1/4	12.5	0/4	25	–	inhibition in vivo at 100 mg/kg [3, 4]: 31%
CCNC(=O)NC(=O)Nc1ccccn1 [compound 30, 1-Ethyl-5-(2-pyridyl)biuret]	3/4	–	0/4	37.5	–	inhibition in vivo at 100 mg/kg ([3]; po, 3 h): 30%
CCNC(=O)N(C)C(=O)Nc1ccc(O)cc1 [compound 34, 1-Ethyl-3-methyl-5-(4-hydroxyphenyl)biuret]	0/4	–	–	12.5	–	inhibition in vivo at 100 mg/kg [3, 4]: 19%; inhibition in vivo at 100 mg/kg ([1]; 100 mg/kg oral, mice): 25%
CCCNC(=O)NC(=O)NCc1ccccc1 [compound 42]	0/4	–	–	–	50	inhibition in vivo at 200 mg/kg [3, 5]: 31%; inhibition in vivo at 200 mg/kg ([1]; 200 mg/kg oral, mice): 82.5%
CCCCNC(=O)NC(=O)Nc1ccccc1 [compound 46]	0/4	–	–	–	25	inhibition in vivo at 200 mg/kg [3, 5]: 84%
CCCCNC(=O)NC(=O)NCc1ccccc1 [compound 48]	0/4	–	–	–	–	ED50 ([2]; Mus musculus, oral, mice (Δ values; range in parentheses), read-out: Analgesic activity, Haffner method, 50% effective dose ED50): 110 mg/kg; inhibition in vivo at 200 mg/kg [3, 5]: 46%; ED50 ([1]; oral, mice (Δ values; range in parentheses), read-out: Analgesic activity, acetic acid-induced stretching method, 50% effective dose ED50): 111 mg/kg
CN(C(=O)NCCCl)C(=O)Nc1ccccc1 [compound 53, 1-(2-Chloroethyl)-3-methyl-5-phenylbiuret]	0/4	12.5	–	25	–	inhibition in vivo at 100 mg/kg ([3]; po, 3 h): 40%
CN(C(=O)NCCC#N)C(=O)Nc1ccccc1 [compound 54, 1-(2-Cyanoethyl)-3-methyl-5-phenylbiuret]	3/4	50	0/4	12.5	–	inhibition in vivo at 100 mg/kg [3, 4]: 39%
CN(C(=O)NCC(O)CO)C(=O)Nc1ccccc1 (stereo not drawn) [compound 58, 1-(2,3-Dihydroxypropyl)-3-methyl-5-phenylbiuret]	0/4	37.5	–	37.5	–	–
COCCNC(=O)N(C)C(=O)Nc1ccccc1 [compound 59, 1-(2-Methoxyethyl)-3-methyl-5-phenylbiuret]	4/4	–	1/4	25	–	inhibition in vivo at 100 mg/kg ([1]; 100 mg/kg oral, mice): 25%
CN(C(=O)NCC(=O)O)C(=O)Nc1ccccc1 [compound 60, 1-Carboxymethyl-3-methyl-5-phenylbiuret]	0/4	–	–	25	–	inhibition in vivo at 100 mg/kg ([1]; 100 mg/kg oral, mice): 25%
CC(=O)NC(=O)N(C)C(=O)Nc1ccccc1 [compound 61, 1-Acetyl-3-methyl-5-phenylbiuret]	0/4	50	–	12.5	–	–
CN(C(=O)NO)C(=O)Nc1ccccc1 [compound 62, 1-Hydroxy-3-methyl-5-phenylbiuret]	1/4	–	0/4	25	–	–
CN(C(=O)Nc1ccccc1)C(=O)Nc1ccccc1 [compound 64]	0/4	37.5	–	–	12.5	–
